Measurements from the supplement of paper PMC10307832.

Columns and labels:
Assay in all cases: relative viability (nuclei count vs DMSO), 5 days (fraction); higher = more cells survive
Olaparib + Luminespib = compound: O=C(c1cc(Cc2n[nH]c(=O)c3ccccc23)ccc1F)N1CCN(C(=O)C2CC2)CC1 [Olaparib] + CCNC(=O)c1noc(-c2cc(C(C)C)c(O)cc2O)c1-c1ccc(CN2CCOCC2)cc1 [Luminespib] (partner 0.01 µM)
Method in brief: (§1)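 Lung cancer cell lines were seeded in 1536-well plates and dosed by pin tool the next day, with either a single drug or a fixed anchor-drug dose combined with five library-drug doses (not always all listed) spaced in √10 steps. Five days later, one step fixed the cells and stained their nuclei (final 0.05% Triton X-100, 1% formaldehyde, 1 ug/ml Hoechst), and nuclei were counted on 4× images. Relative viability is the nuclei count in treated wells divided by the count in vehicle wells, and each value is the median of duplicate plates.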

Olaparib + Lapatinib = compound: O=C(c1cc(Cc2n[nH]c(=O)c3ccccc23)ccc1F)N1CCN(C(=O)C2CC2)CC1 [Olaparib] + CS(=O)(=O)CCNCc1ccc(-c2ccc3ncnc(Nc4ccc(OCc5cccc(F)c5)c(Cl)c4)c3c2)o1 [Lapatinib] (partner 2 µM)
Method in brief: as §1

Crizotinib + Alpelisib = compound: C[C@@H](Oc1cc(-c2cnn(C3CCNCC3)c2)cnc1N)c1c(Cl)ccc(F)c1Cl [Crizotinib] + Cc1nc(NC(=O)N2CCC[C@H]2C(N)=O)sc1-c1ccnc(C(C)(C)C(F)(F)F)c1 [Alpelisib] (partner 2 µM)
Method in brief: as §1

Carfilzomib + Trametinib = compound: CC(C)C[C@H](NC(=O)[C@H](CCc1ccccc1)NC(=O)CN1CCOCC1)C(=O)N[C@@H](Cc1ccccc1)C(=O)N[C@@H](CC(C)C)C(=O)[C@@]1(C)CO1 [Carfilzomib] + CC(=O)Nc1cccc(-n2c(=O)n(C3CC3)c(=O)c3c(Nc4ccc(I)cc4F)n(C)c(=O)c(C)c32)c1 [Trametinib] (partner 0.02 µM)
Method in brief: as §1

Cell Line	relative viability (Olaparib + Luminespib; first compound 0.08 µM)	relative viability (Olaparib + Luminespib; first compound 0.253 µM)	relative viability (Olaparib + Luminespib; first compound 2.53 µM)	relative viability (Olaparib + Luminespib; first compound 8 µM)	relative viability (Olaparib + Lapatinib; first compound 0.08 µM)	relative viability (Olaparib + Lapatinib; first compound 0.253 µM)	relative viability (Olaparib + Lapatinib; first compound 2.53 µM)	relative viability (Olaparib + Lapatinib; first compound 8 µM)	relative viability (Crizotinib + Alpelisib; first compound 0.1 µM)	relative viability (Crizotinib + Alpelisib; first compound 0.3162 µM)	relative viability (Crizotinib + Alpelisib; first compound 1 µM)	relative viability (Carfilzomib + Trametinib; first compound 0.001 µM)	relative viability (Carfilzomib + Trametinib; first compound 0.003162 µM)	relative viability (Carfilzomib + Trametinib; first compound 0.01 µM)	relative viability (Carfilzomib + Trametinib; first compound 0.03162 µM)	relative viability (Carfilzomib + Trametinib; first compound 0.1 µM)	relative viability (Crizotinib + Alpelisib; first compound 0.01 µM)	relative viability (Crizotinib + Alpelisib; first compound 0.03162 µM)
201T	1.08	0.959	1.03	0.972	1.06	0.973	0.939	1	1.03	1.04	1.06	0.712	0.705	0.718	0.734	0.679		
A549					1.21	0.833	0.983	0.666	0.738	0.677	0.793						0.657	0.804
A-427	1.02	0.856	0.859	0.898	1.13	0.931	0.879	1.02	1.11		1.06	0.83	0.744	0.755	0.528	0.201	1.04	1.05
ABC-1	0.816			0.354	1.01	1.07	1.02	1.25	1.22	1.02	0.976						0.964	1.15
BEN		0.308	0.283	0.31	0.636	0.515	0.784	0.712	0.864	1.26	1.12	0.961	0.995	1.07	1.11	0.451	0.925	0.992
CAL-12T	0.604	0.376	0.365	0.355	0.94	0.643	0.631	0.664	1.28	1.13	1.36	0.367	0.288	0.428	0.167	0.11	1.19	1.35
COR-L23	0.722	0.539	0.448	0.186	1.26	0.815	0.739	0.438	0.659	0.758	0.665	0.565	0.739	0.577	0.0935	0.0822	0.81	0.77
COR-L 105	0.736	0.782	0.595	0.565	0.341	0.348	0.363	0.317	0.972	0.88	0.828	0.451	0.458	0.416	0.35	0.328		0.872
Calu-6					1.23	0.995	0.893	0.724	0.988	0.925	1.06						0.944	
ChaGo-K-1	0.596	0.515	0.411	0.29								0.873	0.924	0.878	0.47	0.168		
EBC-1					0.247	0.235	0.236	0.201	0.543	0.202	0.269						0.746	0.823
HCC-78					0.853	0.522	1.01	0.666	0.299	0.279	0.223	0.672	0.849	0.69	0.597	0.255	0.278	0.292
HCC-366					1.06	0.884	0.77	0.417	0.382		0.343	0.345	0.388	0.405	0.293	0.0458	0.547	0.485
IA-LM					1.13	0.926	0.746	0.602	0.805	0.737	0.675						0.726	0.814
LCLC-103H	1.21	0.805	1.19	0.769					1.05	1.13	1.01	0.688	0.643	0.72	0.642	0.557	0.917	0.98
NCI-H441	0.38	0.314	0.318	0.281					0.859		0.711	0.554	0.445	0.236	0.103	0.115	0.795	0.648
NCI-H522	1.23	1.09	0.781	0.824								0.777	0.767	0.815	0.506	0.336		
NCI-H1299					1.01	0.927	0.949	0.963	0.999	1.13	1						1.12	1.03
NCI-H1563	1.21	0.475	0.538	0.481	0.975	0.999	0.992	0.92	1.03	0.938	0.782						0.85	0.838
NCI-H1623	0.492	0.484	0.384	0.331														
NCI-H1648												0.685	0.566	0.592	0.394	0.261		
NCI-H1650	0.245	0.188	0.2	0.195	1.04	0.756	0.796	0.749				0.487	0.537	0.52	0.103	0.1		
NCI-H1703					1.63	1.03	1.29	1.04	0.329	0.364	0.366						0.285	0.299
NCI-H2342	0.685	0.561	0.712	0.649								0.844	0.851	0.862	0.949	0.633		
SW 900	0.171	0.17	0.184	0.197									0.804	0.163	0.177	0.126		
